Values of other authors as cited in patent publication US20030118473A1, “Method and apparatus for ozone decontamination of biological liquids” (priority 2001, published 2003).

Test system: hepatitis C infection
Settings: preliminary research on hepatitis C infection; ozone therapy

For O=[O+][O-] [ozone, Ozone], the “effect on hepatic enzymes (SGOT, SGPT, alkaline phosphatase)” value is listed as “significantly normalize hepatic enzymes”.
